Legend:
Integrin alpha-V/beta-3 [1] = target: T1, Integrin alpha-V/beta-3 (Homo sapiens, UniProt P05106+P06756); test: Inhibition of alphavbeta3 integrin receptor-mediated cell adhesion to fibrinogen in human SK-OV-3 cells […] integrin receptor; type: cell-based
Integrin alpha-V/beta-3 [2] = target: T1, Integrin alpha-V/beta-3; test: Inhibition of alphavbeta3 integrin receptor-mediated cell adhesion to fibrinogen in human HEK293 cells; type: cell-based
Integrin alpha-V/beta-5 = Integrin alpha-V/beta-5 (Homo sapiens, UniProt P06756+P18084); test: Inhibition of alphavbeta5 integrin receptor-mediated cell adhesion to vitronectin in human HT-29 cells; type: cell-based
Integrin alpha-V/beta-5, sequence (P06756 31-889 limits assumed): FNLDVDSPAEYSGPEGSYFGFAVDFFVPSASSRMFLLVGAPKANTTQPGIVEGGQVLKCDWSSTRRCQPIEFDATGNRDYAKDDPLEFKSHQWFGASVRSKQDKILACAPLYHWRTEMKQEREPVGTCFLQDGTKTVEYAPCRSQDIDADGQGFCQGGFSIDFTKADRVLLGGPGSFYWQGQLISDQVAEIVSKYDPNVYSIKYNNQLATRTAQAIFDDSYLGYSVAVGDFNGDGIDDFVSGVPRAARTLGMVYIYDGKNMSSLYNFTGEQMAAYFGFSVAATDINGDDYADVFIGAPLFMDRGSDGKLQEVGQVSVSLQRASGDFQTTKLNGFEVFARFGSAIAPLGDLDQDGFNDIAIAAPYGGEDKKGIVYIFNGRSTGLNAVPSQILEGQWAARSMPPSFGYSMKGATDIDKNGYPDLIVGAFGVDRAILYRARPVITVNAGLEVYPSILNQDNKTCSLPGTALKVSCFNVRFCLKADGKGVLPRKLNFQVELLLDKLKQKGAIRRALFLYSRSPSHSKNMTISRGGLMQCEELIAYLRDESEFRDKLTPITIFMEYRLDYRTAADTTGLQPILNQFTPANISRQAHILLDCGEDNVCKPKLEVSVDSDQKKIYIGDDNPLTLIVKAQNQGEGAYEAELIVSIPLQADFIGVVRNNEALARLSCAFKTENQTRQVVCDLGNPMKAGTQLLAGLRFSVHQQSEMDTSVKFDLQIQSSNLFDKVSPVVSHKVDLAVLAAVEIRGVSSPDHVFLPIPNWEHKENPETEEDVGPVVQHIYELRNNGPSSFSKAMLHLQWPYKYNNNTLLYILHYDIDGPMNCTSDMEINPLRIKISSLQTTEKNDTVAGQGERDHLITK
Integrin alpha-V/beta-5, sequence (P06756 891-1048 limits assumed): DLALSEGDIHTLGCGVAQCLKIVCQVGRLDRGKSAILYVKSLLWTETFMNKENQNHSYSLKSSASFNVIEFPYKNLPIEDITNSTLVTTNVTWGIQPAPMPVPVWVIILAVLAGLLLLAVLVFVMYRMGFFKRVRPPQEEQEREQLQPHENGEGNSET
Integrin alpha-V/beta-5, sequence (P18084 24-799 limits assumed): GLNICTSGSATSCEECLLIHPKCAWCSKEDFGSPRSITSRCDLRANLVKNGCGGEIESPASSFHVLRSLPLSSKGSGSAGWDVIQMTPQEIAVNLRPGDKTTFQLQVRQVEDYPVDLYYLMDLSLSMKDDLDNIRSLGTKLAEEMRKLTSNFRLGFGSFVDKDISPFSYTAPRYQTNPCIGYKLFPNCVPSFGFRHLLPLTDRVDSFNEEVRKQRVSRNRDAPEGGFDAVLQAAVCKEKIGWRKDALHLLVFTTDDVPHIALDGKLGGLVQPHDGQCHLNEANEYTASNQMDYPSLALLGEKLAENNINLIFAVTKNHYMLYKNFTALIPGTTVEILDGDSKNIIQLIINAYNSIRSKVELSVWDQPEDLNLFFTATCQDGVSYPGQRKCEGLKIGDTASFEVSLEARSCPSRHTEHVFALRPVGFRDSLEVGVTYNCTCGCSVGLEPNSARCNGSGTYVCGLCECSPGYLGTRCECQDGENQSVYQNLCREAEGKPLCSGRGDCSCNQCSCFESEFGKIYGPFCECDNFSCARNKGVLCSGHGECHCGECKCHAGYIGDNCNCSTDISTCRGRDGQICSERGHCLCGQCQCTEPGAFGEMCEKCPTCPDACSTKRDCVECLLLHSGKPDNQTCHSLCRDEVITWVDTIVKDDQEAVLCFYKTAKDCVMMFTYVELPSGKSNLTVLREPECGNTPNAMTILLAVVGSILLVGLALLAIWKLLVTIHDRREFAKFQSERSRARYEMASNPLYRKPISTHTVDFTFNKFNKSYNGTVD

Homo sapiens = organism: Homo sapiens; test: Selectivity ratio of IC50 for alphavbeta5 integrin receptor-mediated cell adhesion to vitronectin in human HT-29 cells to IC50 for alphavbeta3 integrin receptor-mediated cell adhesion to fibrinogen in human HEK293 cells; type: cell-based
[3] = target: Integrin alpha-IIb/beta-3 (Homo sapiens, UniProt P05106+P08514); test: Inhibition of alpha2bbeta3 integrin receptor expressed on human surface of platelets; type: cell-based, Platelet
Integrin alpha-5/beta-1 = Integrin alpha-5/beta-1 (Homo sapiens, UniProt P05556+P08648); test: Inhibition of alpha5beta1 integrin receptor expressed on human surface of adipose tissue-derived stem cells; type: cell-based, Adipose tissue derived mesenchymal stem cell
Integrin alpha-5/beta-1, sequence (P05556 21-798 limits assumed): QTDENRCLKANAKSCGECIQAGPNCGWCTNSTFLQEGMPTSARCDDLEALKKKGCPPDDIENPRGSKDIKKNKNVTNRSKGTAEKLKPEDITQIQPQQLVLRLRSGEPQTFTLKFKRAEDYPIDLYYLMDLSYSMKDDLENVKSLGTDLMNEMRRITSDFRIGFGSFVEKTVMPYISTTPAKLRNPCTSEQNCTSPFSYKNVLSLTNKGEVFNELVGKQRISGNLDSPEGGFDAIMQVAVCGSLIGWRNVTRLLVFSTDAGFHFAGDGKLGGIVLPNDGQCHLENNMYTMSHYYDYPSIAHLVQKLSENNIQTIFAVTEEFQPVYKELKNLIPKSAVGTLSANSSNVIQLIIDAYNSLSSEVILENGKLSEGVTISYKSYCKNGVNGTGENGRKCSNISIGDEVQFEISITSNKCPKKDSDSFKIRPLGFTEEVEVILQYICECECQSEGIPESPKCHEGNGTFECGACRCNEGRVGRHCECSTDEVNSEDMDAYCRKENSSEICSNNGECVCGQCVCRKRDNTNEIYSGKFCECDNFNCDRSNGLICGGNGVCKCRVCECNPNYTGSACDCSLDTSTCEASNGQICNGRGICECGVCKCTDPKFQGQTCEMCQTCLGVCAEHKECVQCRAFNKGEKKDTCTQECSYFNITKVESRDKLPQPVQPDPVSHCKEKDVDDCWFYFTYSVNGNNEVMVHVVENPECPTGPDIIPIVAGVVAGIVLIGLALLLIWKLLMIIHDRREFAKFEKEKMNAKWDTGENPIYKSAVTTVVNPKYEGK
Integrin alpha-5/beta-1, sequence (P08648 42-894 limits assumed): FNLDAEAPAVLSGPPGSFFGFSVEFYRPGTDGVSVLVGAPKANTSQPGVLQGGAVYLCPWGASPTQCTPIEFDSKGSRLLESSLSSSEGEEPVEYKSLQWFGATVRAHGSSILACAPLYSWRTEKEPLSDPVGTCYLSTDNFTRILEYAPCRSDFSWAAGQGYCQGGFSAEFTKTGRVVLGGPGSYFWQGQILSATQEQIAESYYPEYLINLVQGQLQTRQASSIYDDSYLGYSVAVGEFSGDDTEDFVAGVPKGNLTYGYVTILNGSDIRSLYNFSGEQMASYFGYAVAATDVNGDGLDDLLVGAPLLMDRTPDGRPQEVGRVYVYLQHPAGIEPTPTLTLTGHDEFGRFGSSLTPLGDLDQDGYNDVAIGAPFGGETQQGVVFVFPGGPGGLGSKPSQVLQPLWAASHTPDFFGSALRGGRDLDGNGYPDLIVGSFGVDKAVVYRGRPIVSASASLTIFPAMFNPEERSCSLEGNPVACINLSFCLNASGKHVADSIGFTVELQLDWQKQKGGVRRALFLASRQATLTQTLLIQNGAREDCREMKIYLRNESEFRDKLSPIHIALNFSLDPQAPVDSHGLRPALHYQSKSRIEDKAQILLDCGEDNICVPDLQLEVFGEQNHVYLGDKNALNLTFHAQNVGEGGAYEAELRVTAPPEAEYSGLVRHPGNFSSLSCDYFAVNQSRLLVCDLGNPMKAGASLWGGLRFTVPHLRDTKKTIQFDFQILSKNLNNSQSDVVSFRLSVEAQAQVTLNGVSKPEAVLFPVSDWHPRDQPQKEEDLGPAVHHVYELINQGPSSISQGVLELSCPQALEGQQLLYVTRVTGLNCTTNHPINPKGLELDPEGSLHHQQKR
Integrin alpha-5/beta-1, sequence (P08648 895-1049 limits assumed): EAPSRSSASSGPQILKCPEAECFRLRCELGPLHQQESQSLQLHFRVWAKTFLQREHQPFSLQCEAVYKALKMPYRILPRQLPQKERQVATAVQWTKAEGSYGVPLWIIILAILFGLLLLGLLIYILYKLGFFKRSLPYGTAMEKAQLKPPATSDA

T1 sequence (P05106 27-788 limits assumed): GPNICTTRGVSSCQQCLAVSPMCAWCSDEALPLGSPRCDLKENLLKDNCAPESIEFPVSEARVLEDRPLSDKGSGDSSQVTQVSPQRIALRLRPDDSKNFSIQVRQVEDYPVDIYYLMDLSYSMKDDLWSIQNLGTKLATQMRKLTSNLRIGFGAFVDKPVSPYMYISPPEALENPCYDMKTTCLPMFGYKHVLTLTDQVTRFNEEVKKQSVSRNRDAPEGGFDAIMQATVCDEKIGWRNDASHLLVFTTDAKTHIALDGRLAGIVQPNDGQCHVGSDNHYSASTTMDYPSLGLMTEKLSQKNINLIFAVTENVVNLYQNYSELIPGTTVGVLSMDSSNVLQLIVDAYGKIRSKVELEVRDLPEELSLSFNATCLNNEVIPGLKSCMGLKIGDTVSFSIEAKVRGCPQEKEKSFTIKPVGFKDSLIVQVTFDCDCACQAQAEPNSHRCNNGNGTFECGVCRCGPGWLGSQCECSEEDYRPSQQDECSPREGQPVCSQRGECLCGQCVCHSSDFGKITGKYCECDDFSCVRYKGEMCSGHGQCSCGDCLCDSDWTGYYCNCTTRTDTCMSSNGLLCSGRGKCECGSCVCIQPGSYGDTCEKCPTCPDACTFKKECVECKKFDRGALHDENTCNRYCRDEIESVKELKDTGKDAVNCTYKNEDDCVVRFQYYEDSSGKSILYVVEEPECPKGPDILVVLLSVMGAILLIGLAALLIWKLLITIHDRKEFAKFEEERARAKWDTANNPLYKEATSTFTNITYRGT
T1 sequence (P06756 31-889 limits assumed): as the sequence (P06756 31-889 limits assumed) above
T1 sequence (P06756 891-1048 limits assumed): as the sequence (P06756 891-1048 limits assumed) above

IC50 (Integrin alpha-V/beta-3 [1]) | IC50 (Integrin alpha-V/beta-3 [2]) | IC50 (Integrin alpha-V/beta-5) | IC50 [3] | IC50 (Integrin alpha-5/beta-1) | SMILES | Ratio IC50 (Homo sapiens)
34 µM | 8.43 µM | 208 µM | > 1 µM | 0.154 µM | CC(C)C[C@@H]1NC(=O)[C@@H]2CSSC[C@@H]3NC(=O)[C@H](CSSC[C@H](NC(=O)[C@H](C(C)C)NC(=O)[C@@H](Cc4ccccc4)NC(=O)[C@H](CC(=O)O)NC(=O)CNC(=O)[C@H](CCCNC(=N)N)NC3=O)C(=O)N[C@@H](CCCNC(=N)N)C(=O)NCC(=O)N[C@@H](CC(=O)O)C(=O)N[C@H](Cc3ccccc3)C(=O)N[C@@H](C(C)C)C(=O)N2)NC(=O)CNC(=O)CNC(=O)[C@H]([C@@H](C)O)NC(=O)[C@H](CCCCN)NC(=O)[C@@H]2CCCN2C1=O | 0.041
25.1 µM | 0.2 µM | 30.2 µM | > 1 µM | 0.154 µM | CC(C)C[C@@H]1NC(=O)[C@@H]2CSCc3cc4cc(c3)CSC[C@H](NC(=O)[C@H](C(C)C)NC(=O)[C@@H](Cc3ccccc3)NC(=O)[C@H](CC(=O)O)NC(=O)CNC(=O)[C@H](CCCNC(=N)N)NC(=O)[C@H](CSC4)NC(=O)CNC(=O)CNC(=O)CNC(=O)[C@H]([C@H](C)O)NC(=O)[C@H](CCCCN)NC(=O)[C@@H]3CCCN3C1=O)C(=O)N[C@@H](CCCNC(=N)N)C(=O)NCC(=O)N[C@H](CC(=O)O)C(=O)N[C@H](Cc1ccccc1)C(=O)N[C@H](C(C)C)C(=O)N2 | 0.006
